Reference: US20230407296A1, “Method to Regulate ALOX12-AS1 IncRNA-Mediated Alteration of ALOX12 Protein and to Screen for Novel Drugs to Alter ALOX12 Protein Level” (priority 2021, published 2023)
d = 2'-deoxy (DNA); m = 2'-O-methyl

What was measured:
ALOX12 = target: T1, ALOX12 (Homo sapiens, UniProt P18054); conditions: cited from earlier work
T1 sequence (P18054 1-663): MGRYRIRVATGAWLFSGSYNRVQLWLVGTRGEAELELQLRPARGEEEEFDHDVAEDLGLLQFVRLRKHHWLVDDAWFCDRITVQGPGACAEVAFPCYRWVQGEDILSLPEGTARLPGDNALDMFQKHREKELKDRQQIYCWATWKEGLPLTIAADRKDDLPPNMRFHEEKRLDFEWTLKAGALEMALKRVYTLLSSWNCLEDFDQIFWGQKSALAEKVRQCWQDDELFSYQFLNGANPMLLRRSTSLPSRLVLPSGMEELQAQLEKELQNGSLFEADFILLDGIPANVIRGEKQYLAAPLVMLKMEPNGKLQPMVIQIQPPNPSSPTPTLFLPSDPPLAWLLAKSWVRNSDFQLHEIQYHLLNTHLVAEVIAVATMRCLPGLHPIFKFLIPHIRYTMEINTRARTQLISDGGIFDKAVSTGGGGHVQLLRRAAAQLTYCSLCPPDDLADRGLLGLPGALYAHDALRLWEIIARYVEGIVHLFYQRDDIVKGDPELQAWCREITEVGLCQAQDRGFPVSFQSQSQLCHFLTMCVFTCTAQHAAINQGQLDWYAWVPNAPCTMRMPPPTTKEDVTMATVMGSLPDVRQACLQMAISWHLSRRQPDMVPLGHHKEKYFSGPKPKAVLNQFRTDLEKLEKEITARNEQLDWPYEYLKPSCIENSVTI

ALOX12 mRNA [1] = conditions: HepG2 cells; cited from earlier work
[2] = test system: ALOX12 protein level in HEK293 cells; assay: ALOX12 protein level in HEK293 cells (immunoblot); assay type: cell-based, human
Protocol: Relative quantification of proteins was performed as described previously [35, 106]. The cell lysates were prepared in 1×RIPA lysis and extraction buffer (catalogue number: 89900, ThermoFisher Scientific) supplemented with 1× Halt protease and phosphatase inhibitor cocktail (catalogue number: 78441, ThermoFisher Scientific). The protein lysates were denatured in Laemmli buffer containing 2% SDS, 10% glycerol, 0.002% bromophenol blue, 0.75 M Tris-HCl pH 6.8, and 100 mM DTT. The immunoblots were imaged using a ChemiDoc XRS+ system (Bio-Rad) and band intensities were quantified using ImageJ (version 1.48) Software [107]. Due to the possibility of inconsistency in the relative expression of housekeeping genes, we normalized all proteins of interest based on the intensity of the Oriole-stained protein profile [92].

ALOX12 mRNA [3] = assay: ALOX12 mRNA level in HEK293 cells (multiplex RT-PCR / qPCR); assay type: cell-based, human
Description: HEK293 cells were transiently transfected with plasmids expressing ALOX12-AS1-201/202 to study lncRNA-mediated suppression of ALOX12. […] The nucleo-cytoplasmic abundance of ALOX12-AS1 lncRNA may be tightly regulated in HEK293 cells. Therefore, increased transcription of the transfected plasmids in the nucleus may not ensure higher levels of the lncRNAs in the cytoplasm, which may be a requisite for suppression of ALOX12. To overcome this limitation, HEK293 cells were transfected with in vitro transcribed ALOX12-AS1-201/202 mRNAs to ensure high cytoplasmic abundance of the antisense lncRNAs. […]
(§1) Total RNA from different cell lines was extracted with Trizol reagent (Catalog number: 15596026; ThermoFisher Scientific, Canada) as per the manufacturer's recommended protocol. […] Absolute quantification of ALOX12-AS1 lncRNA isoforms was performed in a Mastercycler®ep realplex real-time PCR system (Eppendorf, Hamburg, Germany) using SYBR green dye (Catalog number: S7563; ThermoFisher Scientific). […] Real-time PCR data quality control calculations were determined by the SAS program as described previously and the calculated PCR efficiency was between 95%-99%. Quantitative RT-PCR was conducted for different cell-line derived RNAs, and the specificity of each amplified product was confirmed by melting curve analysis. Results were expressed as copy number of specific isoforms per 100 ng of total RNA.

ALOX12-AS1-201 = ALOX12-AS1-201 level in ASO-transfected HEK293 cells (multiplex RT-PCR / qPCR); assay type: cell-based, human
Protocol: (§2) Small interfering RNA (siRNA)-mediated knockdown of ALOX12-AS1 in HEK293 cells was ineffective possibly because of the nuclear localization of the lncRNA. As an alternative approach, multiple isoform-specific oligonucleotides (ASOs) complementary to different regions of ALOX12-AS1-201/202 were designed (FIG. 7A-C).
(§3) Three ALOX12-AS1-202-specific ASOs were designed and two of them (ASO-2 and -3) reduced ALOX12-AS1-202 mRNA levels within 24 hours of transfection (FIGS. 7L&O, red rectangle).
as §1

ALOX12-AS1-202 = ALOX12-AS1-202 level in ASO-transfected HEK293 cells (multiplex RT-PCR / qPCR); assay type: cell-based, human; conditions: HEK293, ALOX12-AS1-201-targeted ASO, 24 hours after transfection, quantitative PCR
Protocol: as §2, §3, §1

**Q.** What does the source list for `O=c1cc(-c2ccccc2)oc2cc(O)c(O)c(O)c12` [baicalein, 5,6,7-Trihydroxyflavone]?
**A.** inhibition of ALOX12 (ALOX12): can be inhibited; selectivity for ALOX12 over other ALOXs (ALOX12; inhibits other ALOXs): not selective for ALOX12

**Q.** For `CCCCCCCC/C=C/CCCCCCCC(=O)O` [elaidic acid], which “reduction of ALOX12 mRNA expression” value (ALOX12 mRNA [1]) is on record?
**A.** Its value is 1.8 fold.

**Q.** Which ALOX12 protein level ([2]; HEK293, ALOX12-AS1-201-targeted ASO, 24 hours after transfection, quantified immunoblot) does the source give for “mA*mG*mA*mA*mC*T*G*T*C*A*A*T*A*A*T*mC*mU*mU*mA*mC (antisense AGAACTGTCAATAATCUUAC; sugars from the 5' end m5 d10 m5, all phosphorothioate, methylation of C not given here) [ASO-4, ALOX12-AS1-201-targeted gapmer ASO]” here?
**A.** The ALOX12 protein level was “significantly reduced”.

**Q.** And the ALOX12 protein level ([2]; HEK293, ALOX12-AS1-201-targeted ASOs, immunoblot)?
**A.** The ALOX12 protein level was “dramatically reduced”.

**Q.** What about the “ALOX12 mRNA level” value (ALOX12 mRNA [3]; HEK293, ALOX12-AS1-201-targeted ASO, 24 hours after transfection, quantitative PCR) of the same compound?
**A.** Its value is “unchanged”.

**Q.** And the “ALOX12 mRNA levels” value (ALOX12 mRNA [3]; HEK293, ALOX12-AS1-201-targeted ASOs, multiplex RT-PCR)?
**A.** The value was “relatively unaltered”.

**Q.** What about the ALOX12-AS1-201 isoform level (ALOX12-AS1-201; HEK293, 24 hours after transfection, quantitative PCR) of the same compound?
**A.** Its ALOX12-AS1-201 isoform level is “significant reduction”.

**Q.** What about the “knockdown of ALOX12-AS1-201” value (ALOX12-AS1-201; HEK293, ALOX12-AS1-201-targeted ASOs, within 24 hours of transfection, multiplex RT-PCR) of the same compound?
**A.** The value was ~27%.

**Q.** What about the ALOX12-AS1-202 isoform level (ALOX12-AS1-202) of the same compound?
**A.** Its ALOX12-AS1-202 isoform level is “significant reduction”.
